Experimental data reported in PubChem BioAssay (NCI).
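1) Cells in 96-well plates. 2) Compound, 48 h, 5 concentrations. 3) Linear interpolation between surrounding doses. 4) Unreached endpoint = highest concentration. GI50 = concentration required for 50% inhibition of growth. TGI is the concentration that stops growth completely.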

Legend:
Assay in all cases: growth of human tumour cells (NCI), 48 h
EKVX NSCLC = tested on: EKVX NSCLC
HT29 colon = tested on: HT29 colon
SNB-78 CNS = tested on: SNB-78 CNS
M14 melanoma = tested on: M14 melanoma
ACHN renal = tested on: ACHN renal
SR leukemia = tested on: SR leukemia
LXFL 529 NSCLC = tested on: LXFL 529 NSCLC
DMS 114 small cell lung = tested on: DMS 114 small cell lung
IGROV1 ovarian = tested on: IGROV1 ovarian
SK-MEL-28 melanoma = tested on: SK-MEL-28 melanoma
SN12C renal = tested on: SN12C renal
DLD-1 colon = tested on: DLD-1 colon

SMILES	TGI (EKVX NSCLC)	TGI (HT29 colon)	TGI (SNB-78 CNS)	TGI (M14 melanoma)	TGI (ACHN renal)	TGI (SR leukemia)	TGI (LXFL 529 NSCLC)	TGI (DMS 114 small cell lung)	TGI (IGROV1 ovarian)	TGI (SK-MEL-28 melanoma)	TGI (SN12C renal)	TGI (DLD-1 colon)	GI50 (EKVX NSCLC)	GI50 (HT29 colon)	GI50 (M14 melanoma)	GI50 (ACHN renal)	GI50 (SR leukemia)	GI50 (IGROV1 ovarian)	GI50 (SK-MEL-28 melanoma)	GI50 (SN12C renal)
COc1cc(OC)c(/C=C2\N=C(C)N(Nc3nnc(NN4C(=O)/C(=C/c5c(OC)cc(OC)cc5OC)N=C4C)c4ccccc34)C2=O)c(OC)c1	> 100 µM	> 100 µM	> 100 µM	> 100 µM	> 100 µM	> 100 µM	> 100 µM	> 100 µM	> 100 µM	> 100 µM	> 100 µM	> 100 µM	–	–	–	–	–	–	–	–
CN(CCO)c1nc2c(c(=O)[nH]1)CCC2	> 100 µM	> 100 µM	> 100 µM	> 100 µM	> 100 µM	> 100 µM	> 100 µM	> 100 µM	> 100 µM	> 100 µM	> 100 µM	> 100 µM	–	–	–	–	–	–	–	–
C[C@@H]1CC[C@H]2C(COCCOCC3=C(C(F)(F)F)O[C@@H]4O[C@@]5(C)CC[C@H]6[C@H](C)CC[C@@H]3[C@@]46OO5)=C(C(F)(F)F)O[C@@H]3O[C@@]4(C)CC[C@@H]1[C@]32OO4	> 100 µM	> 100 µM	–	> 100 µM	> 10.3 µM	> 100 µM	–	–	> 100 µM	> 55.3 µM	> 100 µM	–	0.795 µM	< 0.0138 µM	0.557 µM	0.0797 µM	0.0116 µM	> 21.1 µM	> 7.2 µM	< 0.0448 µM
CCCCCC/C=C\CCCCCCCCCc1cccc(O)c1C(=O)O	> 100 µM	> 100 µM	–	> 100 µM	> 100 µM	> 100 µM	–	–	> 100 µM	> 100 µM	> 100 µM	–	–	–	–	–	–	–	–	–
O=c1oc2ccccc2c(Nc2ccc3c(c2)S(=O)(=O)c2ccccc2O3)c1[N+](=O)[O-]	> 100 µM	> 100 µM	–	> 100 µM	70.2 µM	72.6 µM	–	–	97.1 µM	51.9 µM	92.9 µM	–	–	–	–	–	–	–	–	–
COC(=O)[C@@H]1CN(C(=O)CCc2ccccc2)C(=O)N1C(=O)OCc1ccccc1	> 100 µM	> 100 µM	–	> 100 µM	> 100 µM	> 100 µM	–	–	> 100 µM	> 100 µM	> 100 µM	–	–	–	–	–	–	–	–	–
N#Cc1c(N)oc(-c2cccc([N+](=O)[O-])c2)c1C#N	> 100 µM	37.6 µM	–	> 100 µM	34.8 µM	> 100 µM	–	–	65.3 µM	39.5 µM	90.6 µM	–	–	–	–	–	–	–	–	–
CC12NN=NC1C(=O)NC2=O (stereo not drawn)	> 100 µM	> 100 µM	> 100 µM	–	> 100 µM	> 100 µM	> 100 µM	> 100 µM	> 100 µM	> 100 µM	> 100 µM	> 100 µM	–	–	–	–	–	–	–	–
CC1CCCc2c(C#N)c(N)nc(-c3ccc(Cl)cc3)c21 (stereo not drawn)	> 100 µM	44.4 µM	–	66.4 µM	38.4 µM	72.8 µM	–	–	56.8 µM	> 100 µM	38.2 µM	–	–	–	–	–	–	–	–	–
C#CCOCC12C=CC(O1)C1C(=O)N(C)C(=O)C12 (stereo not drawn)	> 100 µM	> 100 µM	–	> 100 µM	> 100 µM	> 100 µM	–	–	> 100 µM	> 100 µM	> 100 µM	–	–	–	–	–	–	–	–	–
CC1=C2C(=O)c3ccccc3C(=O)[C@H]2[C@H]2CCO[C@H]2O1	91.6 µM	95.2 µM	–	40.2 µM	45.5 µM	> 100 µM	–	–	31.1 µM	63.1 µM	40.4 µM	–	–	–	–	–	–	–	–	–
CCOC(=O)c1c(N2CCCC2)nsc1Nc1ccccc1	> 100 µM	> 100 µM	–	> 100 µM	> 100 µM	> 100 µM	–	–	> 100 µM	> 100 µM	> 100 µM	–	–	–	–	–	–	–	–	–
CN(C)CCCNC(=O)N/N=C/c1cccc([N+](=O)[O-])c1	–	> 100 µM	> 100 µM	> 100 µM	> 100 µM	–	> 100 µM	> 100 µM	> 100 µM	> 100 µM	> 100 µM	> 100 µM	–	–	–	–	–	–	–	–
C=CCOC(=O)/C(=C\c1ccc(OC)c(OC)c1)c1ccc(OC)c(OC)c1	> 100 µM	> 100 µM	–	> 100 µM	> 100 µM	72.3 µM	–	–	> 100 µM	> 100 µM	> 100 µM	–	–	–	–	–	–	–	–	–
CC(=O)OC1C(O)COC(O[C@H]2CC[C@]34C[C@]35CC[C@]3(C)C([C@@]6(C)CC[C@@H](C(C)(C)O)O6)[C@@H](O)C[C@@]3(C)C5C[C@H](OC3OCC(O)C(O)C3O)[C@H]4C2(C)C)C1OC1OCC(O)C(O)C1O (stereo partly drawn)	> 100 µM	> 100 µM	–	> 100 µM	> 100 µM	> 100 µM	–	–	> 100 µM	> 100 µM	> 100 µM	–	–	–	–	–	–	–	–	–
CN(C(=O)Cc1cc(Cl)c(Cl)cc1N=C=S)[C@H]1CCCC[C@@H]1N1CCCC1	31.7 µM	18.7 µM	–	29.6 µM	28.7 µM	3.49 µM	–	–	28.1 µM	7.65 µM	30.3 µM	–	–	–	–	–	–	–	–	–
CC1=NN(c2ccccc2)C(=O)/C1=C/c1ccc(O)cc1	> 100 µM	> 100 µM	–	> 100 µM	> 100 µM	> 100 µM	–	–	> 100 µM	> 100 µM	> 100 µM	–	–	–	–	–	–	–	–	–
CN(C)c1ccc(N=Nc2ccc3nc[nH]c3c2)cc1	> 100 µM	37 µM	–	46.8 µM	37.6 µM	87.5 µM	–	–	> 100 µM	25.6 µM	71 µM	–	–	–	–	–	–	–	–	–
CCOC(=O)/C(C(=S)Nc1ccccc1)=C(/N)N1CCCC1	> 100 µM	> 100 µM	–	> 100 µM	> 100 µM	> 100 µM	–	–	> 100 µM	> 100 µM	> 100 µM	–	–	–	–	–	–	–	–	–
Cc1ccc(N2C(=O)C3c4[nH]c5ccccc5c4C4CCC(C(C)(C)C)CC4C3C2=O)cc1 (stereo not drawn)	42.4 µM	46.1 µM	–	35.6 µM	13.6 µM	16.6 µM	–	–	25.2 µM	49 µM	24.7 µM	–	–	–	–	–	–	–	–	–
CCCCCCNC(=O)c1cnc(Cl)cn1	20.7 µM	> 100 µM	–	26 µM	8.49 µM	16.6 µM	–	–	22.8 µM	74.9 µM	26 µM	–	–	–	–	–	–	–	–	–
O=C(N=S(NC(=O)c1ccccc1)C(Cl)(Cl)Cl)c1ccccc1 (stereo not drawn)	39.2 µM	36.3 µM	–	30.7 µM	47.5 µM	> 73.4 µM	–	–	> 49 µM	66.7 µM	56.2 µM	–	–	–	–	–	–	–	–	–
CCO[C@]12C[C@H](OC)[C@@]3(O)CC(C1[C@H]3OCc1ccccc1)C13C4C2[C@H](OC)C1[C@](COC)(CN4CC)[C@H](O)C[C@@H]3OC (stereo partly drawn)	> 100 µM	> 100 µM	> 100 µM	> 100 µM	> 100 µM	> 100 µM	> 100 µM	> 100 µM	> 100 µM	> 100 µM	> 100 µM	> 100 µM	–	–	–	–	–	–	–	–
CC1(CCC2C=CCC2)CCCNC1=S (stereo not drawn)	> 10 µM	> 10 µM	–	> 10 µM	> 10 µM	> 10 µM	–	–	> 10 µM	> 10 µM	> 10 µM	–	–	–	–	–	–	–	–	–
Cc1ccc(-c2nc3ccc(Cl)cc3[nH]2)cc1	> 100 µM	> 100 µM	–	> 100 µM	> 100 µM	> 100 µM	–	–	> 100 µM	> 100 µM	> 100 µM	–	–	–	–	–	–	–	–	–
C=C1CC2OC2(C(=O)O[C@H]2CCC3[C@@H]4CCC5=CC(=O)CC[C@]5(C)C4CC[C@@]32C)C1=O (stereo partly drawn)	48 µM	24.3 µM	19.5 µM	16.6 µM	16.2 µM	7.65 µM	6.08 µM	10.4 µM	25.6 µM	17.8 µM	13.9 µM	16.5 µM	–	–	–	–	–	–	–	–
COc1nc2c(c(=O)n1C)N(C(C)=O)C1C(N2)OCC(OC(C)=O)C1OC(C)=O (stereo not drawn)	> 10 µM	> 10 µM	–	> 10 µM	> 10 µM	> 10 µM	–	–	> 10 µM	> 10 µM	> 10 µM	–	–	–	–	–	–	–	–	–
CNC(=O)N1CN(c2ccccc2)C2(CCN(CCCC(=O)c3ccc(F)cc3)CC2)C1=O	52.5 µM	26.9 µM	–	40.8 µM	75.5 µM	69.7 µM	–	–	89.1 µM	38.4 µM	75.4 µM	–	–	–	–	–	–	–	–	–
